# Read-outs that look alike come from different tables or passages of the source.
# Experiments:
# [1] = system: platelet aggregation in platelet rich plasma; assay: ADP-induced light transmission aggregometry (according to Born), in vitro treated samples, 2 μM ADP; assay type: cell-based, human; conditions: MRS 2395 100 μmol/L in citrated blood, 5 min room temperature, PRP, 11 healthy donors
# Experimental: (§1) Venous blood was taken from 11 healthy donors and anticoagulated with sodium citrate (3.2% buffered Na citrate).
# (§2) Aliquots of the citrated whole blood sample were treated in vitro with the P2Y(12) antagonist MRS 2395 (Sigma-Aldrich Chemie GmbH, Steinheim, Germany). For this purpose an ethanolic MRS 2395 stock solution (15 mg/mL) was mixed with the whole blood samples so that an end concentration of 100 μmol/L was obtained.
# (§3) After addition of the reagents the blood samples were incubated at room temperature for 5 minutes.
# In order to check whether the samples treated with MRS 2395 actually show a reduced platelet aggregation, platelet rich (PRP) and platelet poor (PPP) plasma was prepared from aliquots of the untreated and MRS 2395-treated whole blood samples described under Example 2a), and the samples were then treated with 2 μM ADP. The PPP samples were used as blank controls. The photometric measurement of the aggregation reaction was carried out in the automated coagulation apparatus BCT® (Dade Behring Marburg GmbH, Marburg, Germany) under continuous stirring (600 rpm). The platelet aggregation of the samples treated with MRS 2395 was reduced by a mean of 27% compared with the platelet aggregation of the untreated samples.
# [2] = system: platelet function in whole blood; assay: Closure time under flow conditions, ADP/PGE1/calcium test cartridge in PFA-100, citrated whole blood treated in vitro; assay type: cell-based, human; conditions: cut-off 81 seconds, MRS 2395 100 μmol/L; for Number of samples with closure times above cut-off (n = 11): ASA 30 μmol/L, citrated whole blood of 11 healthy donors
# Experimental: For the preparation of a partition member for a test cartridge according to the invention a polyether sulfone filter membrane (Supor® membrane, Pall GmbH, Dreieich, Germany) was cut into strips. 1 μL of a solution comprising 7 μg/μL ADP (adenosine-5′-diphosphate potassium salt.2H2O, Sigma-Aldrich Chemie GmbH, Steinheim, Germany) and 5 ng/μL PGE1 (prostaglandin E1, Sigma-Aldrich Chemie GmbH, Steinheim, Germany) and 367.5 μg/μL CaCl2.2H2O (equivalent to 100 μg/μL Ca^2+ ions) were pipetted punctiform onto the membrane and the membrane was dried. Next a circular opening (aperture) with a diameter of 100 μm was punched out of the middle of the region of the membrane treated with the reagents. The membrane thus prepared was used as partition member in the measurement chamber of a PFA-100® test cartridge (Dade Behring Marburg GmbH, Marburg, Germany).
# as §1, §2
# Further aliquots of the citrated whole blood samples were treated in vitro with the COX-1 inhibitor acetylsalicylic acid (abbr.: ASA; Sigma-Aldrich Chemie GmbH, Steinheim, Germany). […]
# To determine the closure time as a measure of platelet function the whole blood samples described under Example 2a) were investigated with the aid of the ADP/PGE1/calcium test cartridge according to the invention described in Example 1 in a PFA-100® apparatus (Platelet Function Analyzer-100, Dade Behring Marburg GmbH, Marburg, Germany). […] The time required up to the closure of the aperture by formation of a blood clot was determined as closure time. Every sample investigated was determined in duplicate and the mean value of a duplicate determination was used as the measurement value.
# Venous blood was taken from healthy donors and anticoagulated with sodium citrate (3.2% buffered Na citrate). […] Samples from 186 donors were determined in duplicate with a Col/Epi PFA-100® test cartridge [see Example 2c)]. Samples from 159 donors were determined in duplicate with an ADP/PGE1/calcium test cartridge according to the invention [see Examples 1 and 2c)].
# The reference ranges (normal range) for the Col/Epi closure time and the ADP/PGE1 closure time were established in that the measurement value ranges in which 90% of the measurement values found for the healthy subjects lay were determined (90% central interval of the normal distribution of all measurements). […]
# [3] = system: platelet function in whole blood; assay: Closure time under flow conditions, conventional Col/Epi PFA-100 test cartridge, citrated whole blood treated in vitro; assay type: cell-based, human; conditions: cut-off 158 seconds, MRS 2395 100 μmol/L; for Number of samples with closure times above cut-off (n = 11): ASA 30 μmol/L, citrated whole blood of 11 healthy donors
# [4] = system: platelet function in whole blood; assay: Closure time under flow conditions, ADP/PGE1 test cartridge without calcium in PFA-100, PPACK whole blood treated in vitro; assay type: cell-based, human; conditions: cut-off 90 seconds, MRS 2395 150 μmol/L, ASA 30 μmol/L, MRS 2179 75 μmol/L; for Number of samples with closure times above cut-off (n = 10): ADP/PGE1 cartridge without calcium, PPACK whole blood of 10 healthy donors; for closure time relative to cut-off (FIG. 3, mean values): ADP/PGE1 cartridge, PPACK blood, 10 donors
# Experimental: Venous blood was taken from 10 healthy donors and anticoagulated with 75 μM PPACK.
# (§4) Aliquots of the whole blood samples were treated in vitro with the P2Y(12) antagonist MRS 2395 (Sigma-Aldrich Chemie GmbH, Steinheim, Germany). For this purpose an ethanolic MRS 2395 stock solution (15 mg/mL) was mixed with the whole blood samples so that an end concentration of 150 μmol/L was obtained.
# Further aliquots of the whole blood samples were treated in vitro with the COX-1 inhibitor acetylsalicylic acid (abbr. ASA; Sigma-Aldrich Chemie GmbH, Steinheim, Germany). For this purpose an aqueous ASA stock solution (1 mg/mL) was mixed with the whole blood samples so that an end concentration of 30 μmol/L was obtained.
# as §4, with “Further aliquots” for “Aliquots”, “P2Y(1)” for “P2Y(12)”, “2179” for “2395”, “aqueous” for “ethanolic”, “(1 mg/ml)” for “(15 mg/mL)”, “75” for “150”
# as §3
# For the determination of the closure time as a measure of the platelet function the whole blood samples described under Example 4a) were investigated with the aid of a ADP/PGE1 test cartridge according to the invention in a PFA-100® apparatus (Platelet Function Analyzer-100, Dade Behring Marburg GmbH, Marburg, Germany). The ADP/PGE1 test cartridge according to the invention used was prepared essentially as described in Example 1 but without the partition member having been treated with CaCl2.2H2O. The test cartridge thus comprised 7 μg ADP and 5 ng PGE1 but no calcium ions.
# 700 μL of a blood sample was added to the reservoir of the temperature equilibrated test cartridge (+37° C.) and incubated at +37° C. in the apparatus for 3 minutes. Next a partial vacuum of −40 mbar was applied by the apparatus when the blood was sucked through a capillary (diameter 200 μm) from the reservoir and finally through an opening (aperture) of the partition member in the measurement chamber. The time that was required up to the closure of the aperture by formation of a blood clot was determined as closure time. Every sample investigated was determined in duplicate and the mean value of a duplicate determination was used as the measurement value.
# Owing to the use of PPACK as anticoagulant the cut-off determined with citrated whole blood in the above-described examples cannot be used. Therefore, the reference range for the ADP/PGE1 closure time from the 10 samples of the healthy donors treated with PPACK was calculated by the determination of the 90% central interval of the normal distribution of the mean values of the duplicate determinations. This gave the following reference ranges for the closure times:
# The upper limit of the 90% central interval was defined as cut-off, i.e. as threshold value for a platelet dysfunction.
# [5] = system: platelet function in whole blood; conditions: Method 2 ADP cartridge without PGE1; 13 patients on 75 mg clopidogrel daily
# Source text: The samples were investigated with the aid of different methods to determine platelet function. • 1. according to the invention under flow conditions and use of an ADP/PGE1/calcium PFA-100® test cartridge (see Examples 1 and 2c), cut-off: >81 seconds; • 2. under flow conditions and use of a PFA-100® test cartridge that differed from the test cartridge according to the invention in accordance with Example 1 in that it comprised no PGE1, cut-off: >78 seconds; • 3. with ADP-induced light transmission aggregometry (according to Born) with addition of 2 μM ADP (see Example 2b), cut-off: <40% light transmission at end of test; • 4. with ADP-induced light transmission aggregometry (according to Born) with the addition of 5 μM ADP (see example 2b), cut-off: <40% light transmission at end of test. This method is recommended by Sanofi-Aventis, the manufacturer of the clopidogrel preparation Plavix®, for the determination of the antithrombotic effect of the medicament.
# The cut-offs for the individual test procedures were determined by preliminary investigations with whole blood and plasma samples of normal donors.
# “+” means an antithrombotic effect could be detected. “−” means no antithrombotic effect could be detected. “0” means that the duplicate determination gave contradictory results, i.e. one value above and one value below the cut-off.
# [6] = system: platelet function in whole blood; conditions: Method 1 ADP/PGE1/calcium cartridge; 13 patients on 75 mg clopidogrel daily
# platelet aggregation [7] = conditions: Method 3 aggregometry 2 μM ADP; 13 patients on 75 mg clopidogrel daily
# platelet aggregation [8] = conditions: Method 4 aggregometry 5 μM ADP; 13 patients on 75 mg clopidogrel daily
smiles,measurement,setting,value
"CNc1nc(Cl)nc2c1ncn2CC(COC(=O)C(C)(C)C)COC(=O)C(C)(C)C [MRS 2395, 2,2-dimethyl-propionic acid 3-(2-chloro-6-methylaminopurin-9-yl)-2-(2,2-dimethyl-propionyloxymethyl)-propyl ester]",platelet aggregation reduced compared with untreated samples (mean),[1],27%
same,Number of samples with closure times above cut-off (n = 11),[2],9
same,"closure time relative to cut-off (FIG. 2, mean values)","[2]; citrated blood, 11 donors",closure times that lie significantly above the upper reference value (cut-off)
same,Number of samples with closure times above cut-off (n = 11),[3],4
same,"closure time relative to cut-off (FIG. 2, mean values)","[3]; citrated blood, 11 donors",lie to a greater extent below the upper reference value (cut-off)
same,Number of samples with closure times above cut-off (n = 10),[4],9
same,"closure time relative to cut-off (FIG. 3, mean values)",[4],closure times that lie significantly above the reference value (cut-off)
COC(=O)[C@H](c1ccccc1Cl)N1CCc2sccc2C1 [clopidogrel],Sensitivity (share of 13 patients with detected antithrombotic effect),[5],46%
same,Sensitivity (share of 13 patients with detected antithrombotic effect),[6],77%
same,number of patients in whom the antithrombotic effect could be detected (of 13),[6],10
same,Sensitivity (share of 13 patients with detected antithrombotic effect),platelet aggregation [7],69%
same,Sensitivity (share of 13 patients with detected antithrombotic effect),platelet aggregation [8],62%
"CC(=O)Oc1ccccc1C(=O)O [Acetylsalicylic acid, acetylsalicylic acid]",Number of samples with closure times above cut-off (n = 11),[2],1
same,Number of samples with closure times above cut-off (n = 11),[2]; listed as acetylsalicylic acid,one
same,Number of samples with closure times above cut-off (n = 11),[3],8
same,Number of samples with closure times above cut-off (n = 10),[4],0
same,Number of samples with closure times above cut-off (n = 10),[4]; listed as acetylsalicylic acid,none
same,"closure time relative to cut-off (FIG. 3, mean values)",[4],no prolongation of closure times
"CNc1ncnc2c1ncn2[C@H]1C[C@H](OP(=O)(O)O)[C@@H](COP(=O)(O)O)O1.N.N [MRS 2179, 2′-deoxy-N6-methyladenosine-3′,5′-bisphosphate, diammonium salt]",Number of samples with closure times above cut-off (n = 10),[4],10
same,"closure time relative to cut-off (FIG. 3, mean values)",[4],closure times that lie significantly above the reference value (cut-off)

# — patent US9759730B2, “Method and device for the determination of platelet function under flow conditions” (SIEMENS HEALTHCARE DIAGNOSTICS PRODUCTS GMBH, priority 2006, dated 2017)
